Measured values as given in paper PMC6127322, “Novel Imidazole and Methoxybenzylamine Growth Inhibitors Affecting Salmonella Cell Envelope Integrity and its Persistence in Chickens” (Scientific Reports, 2018).
≈ marks a conversion by molar mass, not a printed value. Read-outs that look alike come from different tables or passages of the source. Marks after values point to notes of the source that are not given here.

Experiments:
Salmonella Saint-Paul = assay: Dose-response assay (MBC) on Salmonella serovars; type: cell-based, Salmonella enterica; details: serovar Saint-Paul, M9 broth
[1] = system: S. Typhimurium cell content; assay: Loss of 260 nm absorbing materials; type: cell-based, Salmonella enterica subsp. enterica serotype Typhimurium; details: 1 hr, lethal dose (5X MBC), compared to 1% DMSO control
Description: (§1) Figure S2. Estimation of the membrane permeability of Salmonella enterica subsp. enterica serotype Typhimurium strain JSG626 after small molecule (SM) treatment. (A) Crystal […]
(§2) Treatments were normalized based on 10 μg/ml of crystal violet solution (no uptake […]
(§3) different than the 1% DMSO control (P<0.01); n= 9. (B) Loss of 260 nm absorbing materials from S. Typhimurium cell content. 260 nm absorbing materials were measured […]
(§4) standard deviation; *: the amount of 260 nm absorbing material in supernatant was […]
(§5) Both experiments were performed as previously described (1).
(§6) (also on this page, place not known: updtae (%) (ng/µl) Crystal violet 260 nm absorbing material) […]

[2] = system: Salmonella enterica subsp. enterica serotype Typhimurium; assay: Checkerboard assay, SM and antibiotic combinations; type: cell-based; details: for MBC: Salmonella enterica, TYPHIMURIUM, SM alone, read-out: SM MBCalone; for Reduction of cefeprime MBC / Reduction of meropenem MBC: sub-lethal concentration of SM
Description: The potentiation effect of several antibiotics, commonly used to control Salmonella, was studied in a checkerboard assay. […] The MBC of each antibiotic was determined in M9 medium prior the experiment using a dose-response assay, as described above. For potentiation studies, 100 μl of a S. […] The MBC of each antibiotic was determined as described in the dose-response assay. Bacteria challenged with SMs or antibiotics alone at the same concentrations were used to determine the antibiotic-SM combination effects. […] Further, the bacterial suspension was plated on an agar medium and incubated at 37 °C for 36 hrs. The antibiotic-SM combination effect was calculated based on the determination of the fractional bactericidal concentration (FBC) as previously described[66],[67].

Salmonella Newport = assay: Dose-response assay (MBC) on Salmonella serovars; type: cell-based; details: Salmonella enterica; serovar Newport, M9 broth
Salmonella Enteritidis = assay: Dose-response assay (MBC) on Salmonella serovars; type: cell-based; details: Salmonella enterica; serovar Enteritidis, M9 broth
sheep red blood cells = assay: Hemolytic activity; type: cell-based; details: sheep RBCs, 200 µM, 1 hr
Description: (§7) Briefly, 200 µl of 10% sheep or chicken RBC suspension was incubated with 1 µl of SMs (200 µM) for 1 hr at 37 °C in a 96-well plate. After incubation, the plate was centrifuged at 3700 X g for 5 min at 4 °C and then placed on ice for five min. One hundred microliters of the supernatant were transferred into a fresh 96-well plate, and the OD was measured at 540 nm. One percent DMSO and 0.1% Triton-100X were used as negative and positive controls, respectively. Percentage hemolysis was calculated as: [(OD540 SM − OD540 DMSO)/(OD540 1X triton − OD540 PBS)] × 100.

chicken red blood cells = assay: Hemolytic activity; type: cell-based; details: chicken RBCs, 200 µM, 1 hr
Description: as §7

[3] = system: Kan^R S. Typhimurium in layer chickens; type: in vivo, chicken; details: for Reduction of Salmonella in the ceca: compared to the DMSO group; for Ceca positive for S. Typhimurium after enrichment / Livers positive for S. Typhimurium after enrichment / Spleens positive for S. Typhimurium after enrichment: n = 10 chickens per group
Salmonella Javiana = assay: Dose-response assay (MBC) on Salmonella serovars; type: cell-based, Salmonella enterica
[4] = system: nine Salmonella serotypes; assay: Activity spectrum and dose-response across Salmonella serotypes; type: cell-based, Salmonella enterica; details: for Effect against the nine Salmonella serotypes: 200 µM, M9 broth; for MBC: Salmonella, read-out: MBCs among the nine serotypes
Description: The 128 SMs inhibiting S. Typhimurium growth (20% or higher) were tested for their antimicrobial effect on nine different Salmonella serovars frequently implicated in foodborne gastroenteritis outbreaks. […] Both screens were performed at 200 µM as described in the primary screening. Growth conditions for each strain are described in Supplementary Table S2.
S. Typhimurium was challenged with a determined concentration of SM as described in the primary screen.

[5] = system: S. Typhimurium LT2 wild-type (WT) strain; assay: Dose-response assay (MIC and MBC determination) in M9 broth; type: cell-based, Salmonella enterica subsp. enterica serovar Typhimurium; details: 12 hrs at 37 °C, read-out: MBC (minimal bactericidal concentration)
Description: Typhimurium using high-throughput screening assay in a 96-well plate format. […] Plates were incubated in a Sunrise Tecan kinetic microplate reader for 12 hrs at 37 °C and the optical density (OD) was measured at 600 nm. The percentage of growth inhibition was calculated as: […]. Cultures from wells showing no turbidimetric increase were transferred onto a XLT4 agar plate. Plates were incubated at 37 °C for 36 hrs. […] S. Typhimurium was challenged with a determined concentration of SM as described in the primary screen.

S. Typhimurium = type: cell-based, Salmonella enterica subsp. enterica serovar Typhimurium; details: lethal dose (2X MBC) on solid medium or repeated exposure to sub-lethal dose (0.75X MBC) in liquid medium
[6] = system: S. Typhimurium in HD11 cells; assay: S. Typhimurium survival in infected cell lines; type: cell-based, Salmonella enterica subsp. enterica serotype Typhimurium; details: Salmonella enterica, internalized S. Typhimurium, 24 hrs; for IC50: estimated
Description: (§8) The ability of four SMs to clear S. Typhimurium was evaluated using three cell lines (Caco-2 cells, HD11, and THP-1 cells) as previously described. A multiplicity of infection (MOI) of 10 was used. Infected cells were treated with 1 µl of SMs (final concentration ranged between 100 µM and 6.25 µM) and incubated at 37 °C for 24 hrs in humidified, 5% CO2 incubator. Following incubation, cells were washed once with 1X PBS, lysed with 0.1% Triton-100X, serial ten-fold diluted in 1X PBS, and plated on agar plate. Plates were incubated at 37 °C for 24 hrs to determine the intracellular bacteria. Cells not infected and not treated, and cells infected and treated with 2% DMSO were used as controls.

[7] = system: S. Typhimurium in Caco-2 cells; assay: S. Typhimurium survival in infected cell lines; type: cell-based, Salmonella enterica subsp. enterica serotype Typhimurium; details: Salmonella enterica, internalized S. Typhimurium, 24 hrs; for IC50: estimated
Description: as §8

[8] = system: S. Typhimurium in THP-1 cells; assay: S. Typhimurium survival in infected cell lines; type: cell-based, Salmonella enterica subsp. enterica serotype Typhimurium; details: Salmonella enterica, internalized S. Typhimurium, 24 hrs; for IC50: estimated
Description: as §8

[9] = system: S. Typhimurium membrane permeability; assay: Crystal violet uptake assay; type: cell-based, Salmonella enterica subsp. enterica serotype Typhimurium; details: 1 hr, lethal dose (5X MBC); for Reduction of crystal violet uptake: compared to 1% DMSO control
Description: as §1, §2, §3, §4, §5, §6

[10] = SM combined with nalidixic acid
[11] = compared to the DMSO-treated group

SMILES	MBC (Salmonella Saint-Paul) [µM]	Increase in 260 nm-absorbing material [1] [fold]	SM MBCcombined ([2]; SM combined with cefotaxime)	SM MBCcombined ([2]; SM combined with erythromycin)	MBC [2] [µM]	MBC (Salmonella Newport) [µM]	MBC (Salmonella Enteritidis) [µM]	Hemolytic activity (sheep red blood cells)	Hemolytic activity (chicken red blood cells)	Ceca positive for S. Typhimurium after enrichment [3] [%]	Livers positive for S. Typhimurium after enrichment [3] [%]	Spleens positive for S. Typhimurium after enrichment [3] [%]	MBC (Salmonella Javiana) [µM]	MBC [4] [µM]	MBC ([5]; Salmonella enterica) [µM]	Resistance development of S. Typhimurium (S. Typhimurium)	MBC [6] [µM]	IC50 [6] [µM]	MBC [7] [µM]	IC50 [7] [µM]	other results
CC1CCC(C(C)C)C(OC(=O)Cn2c[n+](CC(=O)OC3CC(C)CCC3C(C)C)c3ccccc32)C1 (stereo not drawn) [SM1]	100	2.18	50 µM	50 µM	50	100	100	> 50%	> 50%	90	40	50	100	50 to 100	50	no resistance was observed	6.25	< 3.21	25	12.5 to 25	Reduction of cefeprime MBC [2]: at least 5 fold; Reduction of meropenem MBC [2]: 5 fold; Reduction of Salmonella in the ceca [3]: did not show any reduction; Effect against the nine Salmonella serotypes [4]: cidal; MBC [8]: 100 µM; IC50 [8]: < 50 µM; Reduction of crystal violet uptake [9]: 1.88 fold
CCCCCCCCCCCCCCCC[n+]1ccn(CC#N)c1 [SM3]	50	7.17	25^c μM	25^c μM	25	50	25	below 18%	below 49%	80	60	50	25	25 to 50	25	no resistance was observed	50	< 25	50	12.5 to 25	SM MBCcombined [2, 10]: 25^c μM; Reduction of cefeprime MBC [2]: at least 5 fold; Reduction of meropenem MBC [2]: 2.5 fold; Reduction of Salmonella in the ceca [3]: did not show any reduction; Effect against the nine Salmonella serotypes [4]: cidal; MBC [5]: 25 µM; MBC [8]: 50 µM; IC50 [8]: 25 to 50 µM; Reduction of crystal violet uptake [9]: 4.46 fold
CCOc1cc(/C=N/N=C(N)N)ccc1OCc1ccc(Cl)cc1 [SM5]	50 (≈ 17.3 µg/mL)	5.25	25^c μM	25^c μM	25	50 (≈ 17.3 µg/mL)	50 (≈ 17.3 µg/mL)	lower than 1%	lower than 1%	70	40	30	50 (≈ 17.3 µg/mL)	25 to 100 (≈ 8.67 to 34.7 µg/mL)	25 (≈ 8.67 µg/mL)	no resistance was observed	25 (≈ 8.67 µg/mL)	< 12.5	12.5 (≈ 4.34 µg/mL)	6.25 to 12.5	SM MBCcombined ([2]; SM combined with cefeprime): 25^c μM; SM MBCcombined ([2]; SM combined with ciprofloxacin at the concentration in the cell before): 20^b μM; SM MBCcombined ([2]; SM combined with meropenem): 25^c μM; SM MBCcombined [2, 10]: 25^c μM; Reduction in Salmonella population inside the ceca ([3]; 200 µg of SM per day, oral, five days): approximately 2.8 log; Reduction of cecal colonization by Salmonella [3, 11]: 30%; Reduction of spleen colonization by Salmonella [3, 11]: 25%; MBC [5]: 25 µM (≈ 8.67 µg/mL); MBC [8]: 50 µM (≈ 17.3 µg/mL); IC50 [8]: < 25 µM; Increase in permeability (crystal violet uptake) ([9]; compared to 1% DMSO-treated cells): 2.32 fold
